Reference: ChEMBL document CHEMBL1201862, “PubChem BioAssay data set” (2004)
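96-well plates; 48 h exposure; 5 concentrations. Endpoints by linear interpolation between flanking doses. Not reached: highest tested concentration assigned. The concentration for 50% growth inhibition is given as GI50.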 Activity calls are given as the source filed them. No stated cut-off is given here; in the data, active = GI50 up to about 1.1 µM and inactive = higher.

What was measured:
Test in all cases: NCI tumour cell line growth inhibition, 48 h
SK-MEL-28 = tested on: SK-MEL-28
OVCAR-4 = tested on: OVCAR-4
786-0 = tested on: 786-0
A498 = tested on: A498
NCI-H226 = tested on: NCI-H226
KM12 = tested on: KM12
SK-MEL-5 = tested on: SK-MEL-5
UACC-257 = tested on: UACC-257
SF-295 = tested on: SF-295
OVCAR-8 = tested on: OVCAR-8
TK-10 = tested on: TK-10
SF-268 = tested on: SF-268
NCI-H23 = tested on: NCI-H23
M14 = tested on: M14
NCI-H460 = tested on: NCI-H460
OVCAR-5 = tested on: OVCAR-5
RPMI-8226 = tested on: RPMI-8226

Measured: GI50

CC(=O)c1ccc(NC(=O)COC(=O)c2cccc3c(=O)c4ccccc4[nH]c23)cc1
inactive: SK-MEL-28 40.6 µM | OVCAR-4 6.79 µM | 786-0 37.8 µM | A498 44 µM | NCI-H226 19.4 µM | KM12 12.9 µM | SK-MEL-5 29.4 µM | UACC-257 57.7 µM | SF-295 15.8 µM | OVCAR-8 9.2 µM | TK-10 21.7 µM | SF-268 20.5 µM | NCI-H23 18.6 µM | M14 31.4 µM | NCI-H460 22.6 µM

CC(C)(C)c1cc(C(=O)O)c(C(c2ccccc2)c2ccccc2C(=O)O)c(C(=O)O)c1 (stereo unspecified)
inactive: SK-MEL-28 > 100 µM | OVCAR-4 19.9 µM | 786-0 > 100 µM | NCI-H226 35 µM | KM12 > 100 µM | UACC-257 > 100 µM | SF-295 > 100 µM | OVCAR-8 > 100 µM | TK-10 > 100 µM | SF-268 > 100 µM | OVCAR-5 > 100 µM | NCI-H23 > 100 µM | M14 > 100 µM | NCI-H460 > 100 µM

CCOC(=O)c1cc(/C=C/C(C)=C/C(=O)OC)n(C)c1C
inactive: OVCAR-4 60.7 µM | 786-0 > 100 µM | A498 > 100 µM | NCI-H226 > 100 µM | KM12 59.2 µM | SK-MEL-5 52.1 µM | UACC-257 78.2 µM | SF-295 > 100 µM | OVCAR-8 > 100 µM | TK-10 > 100 µM | SF-268 52.4 µM | OVCAR-5 > 100 µM | NCI-H23 > 100 µM | RPMI-8226 36.2 µM | M14 > 100 µM | NCI-H460 > 100 µM

CC(C)N(C(=O)C12C3C4C1C1C2C3C41C(O)C(C)(C)C)C(C)C (stereo unspecified)
inactive: SK-MEL-28 > 50 µM | 786-0 > 50 µM | A498 > 50 µM | SK-MEL-5 > 50 µM | SF-295 > 50 µM | OVCAR-8 > 50 µM | SF-268 > 50 µM | M14 > 50 µM

Clc1ccc(C(c2ccc(Cl)cc2)c2ccccn2)cc1
inactive: SK-MEL-28 > 10 µM | OVCAR-4 27.4 µM | 786-0 16.7 µM | NCI-H226 17.1 µM | KM12 19.1 µM | SK-MEL-5 17.1 µM | UACC-257 18.8 µM | SF-295 19.1 µM | OVCAR-8 16.7 µM | TK-10 19.7 µM | SF-268 23.5 µM | OVCAR-5 14.9 µM | NCI-H23 31.6 µM | RPMI-8226 28.8 µM | M14 21.1 µM | NCI-H460 17.1 µM

CN/N=C(\C)c1c(O)cc(C)oc1=O
inactive: SK-MEL-28 > 100 µM | OVCAR-4 > 100 µM | 786-0 > 100 µM | A498 > 100 µM | NCI-H226 > 100 µM | KM12 > 100 µM | UACC-257 > 100 µM | SF-295 > 100 µM | OVCAR-8 > 100 µM | TK-10 > 100 µM | SF-268 > 100 µM | NCI-H23 > 100 µM | M14 > 100 µM | NCI-H460 > 100 µM

CC(=O)C=C1Nc2ccccc2N1
inactive: SK-MEL-28 > 100 µM | OVCAR-4 > 100 µM | 786-0 > 100 µM | NCI-H226 > 100 µM | KM12 > 100 µM | SK-MEL-5 > 100 µM | UACC-257 > 100 µM | SF-295 > 100 µM | OVCAR-8 > 100 µM | SF-268 > 100 µM | OVCAR-5 > 100 µM | NCI-H23 > 100 µM | RPMI-8226 > 100 µM | M14 > 100 µM | NCI-H460 > 100 µM

COc1cccc(C=O)c1C(=O)c1cc(O)ccc1O
inactive: SK-MEL-28 34.1 µM | OVCAR-4 18.3 µM | 786-0 > 100 µM | A498 > 44.9 µM | NCI-H226 > 100 µM | KM12 > 100 µM | SK-MEL-5 91.8 µM | UACC-257 20.1 µM | SF-295 > 100 µM | OVCAR-8 20.3 µM | TK-10 29.6 µM | SF-268 > 40 µM | OVCAR-5 > 100 µM | NCI-H23 > 81.7 µM | M14 17.9 µM | NCI-H460 > 100 µM

CCCCCCCCCCCCCP(=O)(OC)OC
inactive: SK-MEL-28 24.3 µM | OVCAR-4 19.8 µM | 786-0 19.5 µM | NCI-H226 19.2 µM | KM12 17.5 µM | SK-MEL-5 18.6 µM | UACC-257 19.4 µM | SF-295 21.5 µM | OVCAR-8 17 µM | TK-10 17.8 µM | OVCAR-5 16.5 µM | NCI-H23 18.7 µM | RPMI-8226 24.3 µM | M14 19.9 µM | NCI-H460 17.1 µM

Nc1ccc(C(=O)N/C(=C\c2cccc([N+](=O)[O-])c2)c2nc3ccccc3[nH]2)cc1
inactive: SK-MEL-28 > 92.9 µM | OVCAR-4 25.1 µM | 786-0 28.4 µM | A498 61.8 µM | NCI-H226 > 100 µM | KM12 > 100 µM | SK-MEL-5 76.4 µM | SF-295 28.4 µM | OVCAR-8 33.1 µM | TK-10 49 µM | SF-268 21.8 µM | OVCAR-5 > 100 µM | NCI-H23 > 75.9 µM | RPMI-8226 > 100 µM | M14 > 100 µM | NCI-H460 74.8 µM

CC[N+](CC)(CC)Cc1cc2ccccc2n1C(=O)OC
inactive: SK-MEL-28 > 100 µM | OVCAR-4 > 100 µM | 786-0 > 100 µM | NCI-H226 > 100 µM | KM12 > 100 µM | SK-MEL-5 > 100 µM | UACC-257 > 100 µM | SF-295 > 100 µM | OVCAR-8 > 100 µM | TK-10 > 100 µM | SF-268 > 100 µM | OVCAR-5 > 100 µM | NCI-H23 > 100 µM | RPMI-8226 > 100 µM | M14 > 100 µM | NCI-H460 > 100 µM

O=C(O)C(C(=O)C(=O)C(C(=O)O)c1ccc(Cl)cc1)c1ccc(Cl)cc1 (stereo unspecified)
inactive: SK-MEL-28 4.54 µM | OVCAR-4 1.89 µM | 786-0 4.2 µM | A498 4.76 µM | NCI-H226 4.58 µM | KM12 3.75 µM | UACC-257 2.75 µM | SF-295 8.65 µM | OVCAR-8 2.25 µM | TK-10 4.57 µM | SF-268 2.9 µM | OVCAR-5 4.25 µM | NCI-H23 2 µM | RPMI-8226 2.13 µM | M14 4.45 µM | NCI-H460 3.46 µM

CN(C(=O)C12C3C4C1C1C4(C(=O)C45C6C7C4C4C5C6C74C)C3C12C)C(C)(C)C (stereo unspecified)
inactive: SK-MEL-28 > 100 µM | 786-0 67.9 µM | A498 55.3 µM | NCI-H226 72.3 µM | KM12 78.7 µM | SK-MEL-5 31.6 µM | UACC-257 32.5 µM | SF-295 > 100 µM | OVCAR-8 > 100 µM | TK-10 > 100 µM | SF-268 > 100 µM | OVCAR-5 88.1 µM | NCI-H23 70.5 µM | M14 > 100 µM | NCI-H460 54.6 µM

C[Si](C)(C)CN1C(=O)c2ccccc2C1(O)c1ccccc1 (stereo unspecified)
inactive: SK-MEL-28 > 100 µM | OVCAR-4 70.6 µM | 786-0 > 100 µM | A498 > 100 µM | NCI-H226 > 100 µM | KM12 59.7 µM | SK-MEL-5 46.6 µM | UACC-257 57.3 µM | SF-295 64.4 µM | OVCAR-8 > 100 µM | TK-10 > 100 µM | SF-268 98.4 µM | OVCAR-5 > 100 µM | NCI-H23 50.6 µM | M14 > 100 µM | NCI-H460 65.6 µM

CC(C)NCCNC(=O)c1ccccc1Nc1c(Cl)cccc1Cl
inactive: SK-MEL-28 14.4 µM | OVCAR-4 14.4 µM | 786-0 4.16 µM | NCI-H226 13.5 µM | KM12 16.9 µM | SK-MEL-5 5.04 µM | UACC-257 10.3 µM | SF-295 15.2 µM | OVCAR-8 16.6 µM | TK-10 11.8 µM | SF-268 18.1 µM | OVCAR-5 7.38 µM | NCI-H23 17.7 µM | RPMI-8226 3.81 µM | M14 11.5 µM | NCI-H460 3.29 µM

O=C(Cn1cc(I)c(C(=O)NCC(O)CO)n1)NCC(O)CO (stereo unspecified)
inactive: SK-MEL-28 > 100 µM | OVCAR-4 > 100 µM | 786-0 > 100 µM | A498 > 100 µM | NCI-H226 > 100 µM | KM12 > 100 µM | UACC-257 > 100 µM | SF-295 > 100 µM | OVCAR-8 > 100 µM | TK-10 > 100 µM | SF-268 > 100 µM | NCI-H23 > 100 µM | RPMI-8226 > 100 µM | M14 > 100 µM | NCI-H460 > 100 µM

N#C/C(N)=N/c1ccccc1
inactive: SK-MEL-28 > 100 µM | OVCAR-4 > 100 µM | 786-0 > 100 µM | A498 > 100 µM | NCI-H226 > 100 µM | KM12 > 100 µM | SK-MEL-5 > 100 µM | SF-295 > 100 µM | OVCAR-8 > 100 µM | TK-10 > 100 µM | SF-268 > 100 µM | OVCAR-5 > 100 µM | NCI-H23 > 100 µM | RPMI-8226 > 100 µM | M14 > 100 µM | NCI-H460 > 100 µM

CCOC(=O)C(=O)/C=C(\C)Nc1c(NC2OCC(OC(C)=O)C(OC(C)=O)C2OC(C)=O)nc(SC)[nH]c1=O (stereo unspecified)
inactive: SK-MEL-28 > 100 µM | OVCAR-4 > 100 µM | 786-0 > 100 µM | A498 > 100 µM | KM12 > 100 µM | SK-MEL-5 > 100 µM | UACC-257 > 100 µM | SF-295 > 100 µM | OVCAR-8 > 100 µM | TK-10 > 100 µM | SF-268 > 100 µM | OVCAR-5 > 100 µM | NCI-H23 > 100 µM | RPMI-8226 > 100 µM | M14 > 100 µM | NCI-H460 > 100 µM
